# Patent US20100029689A1, “PHOSPHODIESTERASE 4 INHIBITORS” (MEMORY PHARMACEUTICALS CORPORATION, priority 2008, published 2010)
# Legend:
# hPDE-4D6 = target: T1, hPDE-4D6 (Homo sapiens, UniProt Q08499); test: In vitro measurement of type 4 phosphodiesterase inhibition activity (hPDE-4D6, [3H]cAMP/alumina column assay); format: biochemical; details: recombinant hPDE-4D6 from Sf9 cell lysate, 3 uM cAMP, 12 min, room temperature; read-out: PDE4D6 IC50
# T1 construct: made in house; host or cells: Sf9 insect cells (baculovirus)
# Procedure: Human PDE4 was obtained from baculovirus-infected Sf9 cells that expressed the recombinant enzyme. The cDNA encoding hPDE-4D6 was subcloned into a baculovirus vector.
# Insect cells (Sf9) were infected with the baculovirus and cells were cultured until protein was expressed. The baculovirus-infected cells were lysed and the lysate was used as source of hPDE-4D6 enzyme. The enzyme was partially purified using a DEAE ion exchange chromatography. This procedure can be repeated using cDNA encoding other PDE-4 enzymes.
# Type 4 phosphodiesterases convert cyclic adenosine monophosphate (cAMP) to 5′-adenosine monophosphate (5′-AMP). Nucleotidase converts 5′-AMP to adenosine. Therefore the combined activity of PDE4 and nucleotidase converts cAMP to adenosine. Adenosine is readily separated from cAMP by neutral alumina columns. Phosphodiesterase inhibitors block the conversion of cAMP to adenosine in this assay; consequently, PDE4 inhibitors cause a decrease in adenosine.
# Cell lysates (40 ul) expressing hPDE-4D6 were combined with 50 ul of assay mix and 10 μl of inhibitors and incubated for 12 min at room temperature. Final concentrations of assay components were: 0.4 ug enzyme, 10 mM Tris-HCl (pH 7.5), 1 mM MgCl2, 3 uM cAMP, 0.002 U 5′-nucleotidase, and 3×10^4 cpm of [3H]cAMP. The reaction was stopped by adding 100 μl of boiling 5mN HCl. An aliquot of 75 μl of reaction mixture was transferred from each well to alumina columns (Multiplate; Millipore). Labeled adenosine was eluted into an OptiPlate by spinning at 2000 rpm for 2 min; 150 μl per well of scintillation fluid was added to the OptiPlate. The plate was sealed, shaken for about 30 min, and cpm of [^3H]adenosine was determined using a Wallac Triflux®.
# All test compounds are dissolved in 100% DMSO and diluted into the assay such that the final concentration of DMSO is 0.1%.
# A decrease in adenosine concentration is indicative of inhibition of PDE activity. […] Nonlinear regression software (Assay Explorer@) was used to estimate pIC50 values.
# T1 sequence (Q08499 1-518 isoform Q08499-8): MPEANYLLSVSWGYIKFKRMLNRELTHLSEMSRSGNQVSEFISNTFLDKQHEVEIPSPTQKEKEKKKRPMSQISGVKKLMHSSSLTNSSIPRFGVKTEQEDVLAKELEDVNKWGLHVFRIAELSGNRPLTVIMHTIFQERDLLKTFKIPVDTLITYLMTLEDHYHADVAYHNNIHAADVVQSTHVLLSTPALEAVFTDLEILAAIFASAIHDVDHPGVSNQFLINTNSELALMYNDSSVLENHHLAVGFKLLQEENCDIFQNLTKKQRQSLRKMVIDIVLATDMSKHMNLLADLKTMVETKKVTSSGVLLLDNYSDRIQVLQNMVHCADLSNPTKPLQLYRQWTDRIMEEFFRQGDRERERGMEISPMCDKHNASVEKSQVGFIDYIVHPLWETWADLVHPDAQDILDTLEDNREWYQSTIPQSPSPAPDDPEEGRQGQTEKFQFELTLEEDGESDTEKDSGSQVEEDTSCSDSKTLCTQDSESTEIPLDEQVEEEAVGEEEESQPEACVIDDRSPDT
Compound,melting point [°C],IC50 (hPDE-4D6) [µM]
COc1ccc(N(Cc2cncnc2)c2ccc(C(=O)O)cc2)cc1OC1CCC1 [Compound 193],174 to 177.9,–
COc1ccc(N(Cc2cncnc2)c2ccc(C(=O)O)cc2)cc1OCC1CC1 [Compound 195],185.6 to 187.2,–
CCOc1cc(N(Cc2cncnc2)c2ccc(C(=O)O)cc2)ccc1OC [Compound 196],190.9 to 191.9,–
O=C(O)c1cccc(N(Cc2cnco2)c2ccc(OC(F)F)c(OCC3CC3)c2)c1 [Compound 198],60.2 to 61,–
CCOc1cc(N(Cc2cnco2)c2cccc(C(=O)O)c2)ccc1OC [Compound 200],158 to 159.8,–
O=C(O)c1ccc(N(Cc2cncnc2)c2ccc(OC(F)F)c(OC3CCC3)c2)cc1 [Compound 205],135.1 to 136.3,–
O=C(O)c1ccc(N(Cc2cncnc2)c2ccc(OC(F)F)c(OCc3ccccc3)c2)cc1 [Compound 214],157.4 to 158.2,–
CCOc1cc(N(Cc2cnc(C)s2)c2ccc(C(=O)O)cc2)ccc1OC(F)F [Compound 225],73.1 to 74.1,–
COc1ccc(N(Cc2cccnc2)c2cccc(C3NC(=O)NC3=O)c2)cc1OC1CCCC1 (stereo not drawn) [Compound 239],99.7 to 105,–
COc1ccc(N(Cc2cccnc2)c2ccc(C3NC(=O)NC3=O)cc2)cc1OC1CCCC1 (stereo not drawn) [Compound 245],108 to 112.5,–
O=C1NC(=O)C(c2cccc(N(Cc3cncs3)c3ccc(OC(F)F)c(OC(F)F)c3)c2)N1 (stereo not drawn) [Compound 257],63.1 to 82.3,–
CCOc1cc(-c2ncc(CN(c3ccc(C(=O)O)cc3)c3ccc(OC(F)F)c(OCC)c3)o2)ccc1OC(F)F [Compound 273],178.4 to 178.9,–
"CCOc1cc(N(Cc2cccnc2)c2ccc(C(=O)O)cc2)ccc1OC(F)F [Example 11, 4-[(4-Difluoromethoxy-3-ethoxy-phenyl)-pyridin-3-ylmethyl-amino]-benzoic acid]",177.6 to 178.9,–
"COc1cc(N(Cc2cccnc2)c2ccc(C(=O)O)cc2)ccc1OC(F)F [Example 14, 4-[(4-Difluoromethoxy-3-methoxy-phenyl)-pyridin-3-ylmethyl-amino]-benzoic acid]",183.7 to 184.9,–
CCOc1cc(N(Cc2cccnc2)c2ccc(C(=O)O)cc2)ccc1OC(F)F [Example 14],–,0.00254
COc1ccc(N(Cc2cccnn2)c2ccc(C(=O)O)cc2)cc1OC1CCCC1 [Example 47],–,0.128
O=C(O)c1ccc(N(Cc2cncs2)c2ccc(OC(F)F)c(OC(F)F)c2)cc1 [Example 59],–,0.00569
COc1ccc(N(Cc2cncs2)c2ccc(C(=O)O)cc2)cc1OCC1CC1 [Example 72],–,0.0251
O=C(O)c1ccc(N(Cc2cncnc2)c2ccc(OC(F)F)c(OC(F)F)c2)cc1 [Example 80],–,0.00617
COc1ccc(N(Cc2cncs2)c2ccc(S(C)(=O)=O)cc2)cc1O[C@@H]1CCOC1 [Example 111],–,0.029
COc1cc(N(Cc2cncs2)c2cccc(C(=O)O)c2)ccc1OC(F)F [Example 116],–,0.007
COc1cc(N(Cc2cccnc2)c2ccc(C(=O)O)cc2)ccc1OC(F)F [Example 124],–,0.0112
CCOc1cc(N(Cc2cncs2)c2ccc(C(=O)O)cc2)ccc1OC [Example 130],–,0.0086
COc1ccc(N(Cc2cncs2)c2ccc(C(=O)O)cc2)cc1OC(C)C [Example 131],–,0.0173
O=C(O)Cc1ccc(N(Cc2cncnc2)c2ccc(OC(F)F)c(OC(F)F)c2)cc1 [Example 137],–,0.139
COc1ccc(N(Cc2cncs2)c2ccc(C(=O)O)cc2)cc1OC [Example 138],–,0.061
O=C(O)Cc1cccc(N(Cc2cncnc2)c2ccc(OC(F)F)c(OC(F)F)c2)c1 [Example 139],–,0.053
O=C(O)c1ccc(N(Cc2cnco2)c2ccc(OC(F)F)c(OC(F)F)c2)cc1 [Example 141],–,0.027
O=C(O)c1ccc(N(Cc2cnccn2)c2ccc(OC(F)F)c(OC(F)F)c2)cc1 [Example 142],–,0.289
CCOc1cc(N(Cc2cncnc2)c2ccc(C(=O)O)cc2)ccc1OC(F)F [Example 143],–,0.0075
